Laboratory results as given in patent US5336673A, “3-substituted cephem compounds” (priority 1990, dated 1994).
In brackets after ≈: the same amount, converted by molar mass.

What was measured:
[1] = tested on: Streptococcus pyogenes A 308; assay: Antibacterial activity, MIC by Agar dilution method, standard test strain 1; assay type: cell-based; settings: A308, 10^7 CFU/ml, 37° C., 18 hours
Experimental: (§1) The antibacterial activity was determined by an Agar dilution method as described below.
(§2) That is, the two-fold serial dilutions of the antibacterial compounds (1000 μg compound/ml) were prepared and dispersed in Muller Hinton Agar in a petri dish to a concentration of 100~0.002 μg/ml. The culture broths of standard test strains were inoculated on the medium to a concentration 10^7 CFU/ml, and incubated at 37° C. for 18 hours. The concentration of compounds(I) at which the strains were not grown was regarded as minimum inhibition concentration (MIC).
(§3) The results of antibacterial activity test of the representative examples of the compound (I) against 20 standard test strains shown in terms of MIC were indicated in Table 1.
1. Streptococcus pyogenes A 308

[2] = tested on: Streptococcus faecium MD 86; assay: Antibacterial activity, MIC by Agar dilution method, standard test strain 3; assay type: cell-based; settings: Enterococcus faecium, MD86, 10^7 CFU/ml, 37° C., 18 hours
Experimental: as §1, §2, §3
3. Streptococcus faecium MD 86

[3] = tested on: Staphylococcus aureus SG 511; assay: Antibacterial activity, MIC by Agar dilution method, standard test strain 4; assay type: cell-based; settings: SG511, 10^7 CFU/ml, 37° C., 18 hours
Experimental: as §1, §2, §3
4. Staphylococcus aureus SG 511

[4] = tested on: Staphylococcus aureus 503; assay: Antibacterial activity, MIC by Agar dilution method, standard test strain 6; assay type: cell-based; settings: 10^7 CFU/ml, 37° C., 18 hours
Experimental: as §1, §2, §3
6. Staphylococcus aureus 503

Escherichia coli DC O = assay: Antibacterial activity, MIC by Agar dilution method, standard test strain 8; assay type: cell-based; settings: Escherichia coli, 18 h
Experimental: as §1, §2, §3

Escherichia coli 1507E = assay: Antibacterial activity, MIC by Agar dilution method, standard test strain 11; assay type: cell-based; settings: Escherichia coli, 1507E, 18 h
Experimental: as §1, §2, §3

[5] = tested on: Pseudomonas aeruginosa 9027; assay: Antibacterial activity, MIC by Agar dilution method, standard test strain 12; assay type: cell-based; settings: 10^7 CFU/ml, 37° C., 18 hours
Experimental: as §1, §2, §3
12. Pseudomonas aeruginosa 9027

Salmonella typhimurium = assay: Antibacterial activity, MIC by Agar dilution method, standard test strain 16; assay type: cell-based; settings: Salmonella enterica, 10^7 CFU/ml, 37° C., 18 hours
Experimental: as §1, §2, §3
16. Salmonella typhimurium

Klebsiella oxytoca 1082E = assay: Antibacterial activity, MIC by Agar dilution method, standard test strain 17; assay type: cell-based; settings: 10^7 CFU/ml, 37° C., 18 hours
Experimental: as §1, §2, §3

Enterobacter cloacae P99 = assay: Antibacterial activity, MIC by Agar dilution method, standard test strain 19; assay type: cell-based; settings: P99, 18 h
Experimental: as §1, §2, §3
19. Enterobacter cloacae P99

D Streptococcus II = assay: MIC against clinically isolated strains; assay type: cell-based; settings: 18 h, 20 clinical isolates
Experimental: as §1, §2

D Streptococcus I = assay: MIC against clinically isolated strains; assay type: cell-based; settings: 18 h, 20 clinical isolates
Experimental: as §1, §2

Enterobacter cloacae = assay: MIC against clinically isolated strains; assay type: cell-based; settings: 20 clinical isolates
Experimental: as §1, §2

Enterococcus II = assay: MIC against clinically isolated strains; assay type: cell-based; settings: 20 clinical isolates
Experimental: as §1, §2

Enterococcus I = assay: MIC against clinically isolated strains; assay type: cell-based; settings: 18 h, 20 clinical isolates
Experimental: as §1, §2

Escherichia coli = assay: MIC against clinically isolated strains; assay type: cell-based; settings: 18 h, 20 clinical isolates
Experimental: as §1, §2

Morganella morganil = assay: MIC against clinically isolated strains; assay type: cell-based; settings: 18 h, 5 clinical isolates
Experimental: as §1, §2

Proteus mirabilis = assay: MIC against clinically isolated strains; assay type: cell-based; settings: 18 h, 4 clinical isolates
Experimental: as §1, §2

Proteus vulgaris = assay: MIC against clinically isolated strains; assay type: cell-based; settings: 18 h, 5 clinical isolates
Experimental: as §1, §2

Providencia rettgeri = assay: MIC against clinically isolated strains; assay type: cell-based; settings: 18 h, 6 clinical isolates
Experimental: as §1, §2

Pseudomonas II = assay: MIC against clinically isolated strains; assay type: cell-based; settings: 18 h, 19 clinical isolates
Experimental: as §1, §2

Pseudomonas I = assay: MIC against clinically isolated strains; assay type: cell-based; settings: 18 h, 19 clinical isolates
Experimental: as §1, §2

Pseudomonas aeruginosa = assay: MIC against clinically isolated strains; assay type: cell-based; settings: 18 h, 20 clinical isolates
Experimental: as §1, §2

Serratia spp = assay: MIC against clinically isolated strains; assay type: cell-based; settings: 18 h, 20 clinical isolates
Experimental: as §1, §2

Streptococcus II = assay: MIC against clinically isolated strains; assay type: cell-based; settings: 18 h, 17 clinical isolates
Experimental: as §1, §2

Streptococcus I = assay: MIC against clinically isolated strains; assay type: cell-based; settings: 20 clinical isolates
Experimental: as §1, §2

[6] = tested on: Streptococcus pyogenes 77A; assay: Treatment effect on systemic infection model; assay type: in vivo; settings: im, read-out: PD50
Experimental: The antibacterial activity test on systemic infection model was carried out using the compound of Example 18 as follows: 0.3 ml of diluted solution containing lethal dose of strain was administered intraperitoneally to the test animal, and then 5 to 0.078 mg/kg of compound was administered intramuscularly.

Acute toxcity test = settings: in vivo, male ICR-mouse, after 1 week
Experimental: Further, in order to illustrate the usefulness of the compounds (I) as a drug, compounds of Examples 12, 18 and 36 were tested for acute toxcity by using 4 weeks-old male ICR-mouse as a test animal.
the compounds were dissolved in physiological saline and phosphate buffered solution (pH 7.0), or if they were […], suspended in carboxymethylcellulose or gum Arabic and then mixed with phosphate buffered solution.
The solution or mixture was administered to the tested animals intravenously or subcutaneously and, after 1 week, the number of surviving animals was calculated.

[7] = tested on: β-lactamase producing strains such as Pseudomonas aeruginosa and Enterobacter cloacae; assay: Antibacterial activity against β-lactamase producing strains (summary in words); assay type: cell-based
Experimental: as §1, §2

CON=C(C(=O)NC1C(=O)N2C(C(=O)[O-])=C(C[n+]3nn(N)c4ccccc43)CSC12)c1csc(N)n1 [Example 18, (6R,7R)-7-[(Z)-2-(2-aminothiazol-4-yl)-2-methoxyiminoacetamido]-3-[(1-aminobenzotriazol-3-ium)methyl]-ceph-3-em-4-carboxylate]
MIC [1]: 0.004 µg/mL (≈ 0.00755 µM)
MIC [2]: > 100 µg/mL
MIC [3]: 0.391 µg/mL (≈ 0.738 µM)
MIC [4]: 0.195 µg/mL (≈ 0.368 µM)
MIC (Escherichia coli DC O): 0.025 µg/mL (≈ 0.0472 µM)
MIC (Escherichia coli 1507E): 0.025 µg/mL (≈ 0.0472 µM)
MIC [5]: 3.12 µg/mL (≈ 5.9 µM)
MIC (Salmonella typhimurium): 0.195 µg/mL (≈ 0.368 µM)
MIC (Klebsiella oxytoca 1082E): 0.049 µg/mL (≈ 0.0925 µM)
MIC (Enterobacter cloacae P99): 12.5 µg/mL (≈ 23.6 µM)
MIC (D Streptococcus II): 3.12 to 100 µg/mL (≈ 5.9 to 189 µM)
MIC50 (D Streptococcus II): 25 µg/mL (≈ 47.2 µM)
MIC90 (D Streptococcus II): 50 µg/mL (≈ 94.4 µM)
MIC (D Streptococcus I): 3.12 to 100 µg/mL (≈ 5.9 to 189 µM)
MIC50 (D Streptococcus I): 12.5 µg/mL (≈ 23.6 µM)
MIC90 (D Streptococcus I): 100 µg/mL (≈ 189 µM)
MIC Range (Enterobacter cloacae): 0.007 to 12.5 µg/mL
MIC50 (Enterobacter cloacae; 18 h): 0.025 µg/mL (≈ 0.0472 µM)
MIC90 (Enterobacter cloacae; 18 h): 0.391 µg/mL (≈ 0.738 µM)
MIC Range (Enterococcus II): 0.004 to 25 µg/mL
MIC50 (Enterococcus II; 18 h): 0.025 µg/mL (≈ 0.0472 µM)
MIC90 (Enterococcus II; 18 h): 0.098 µg/mL (≈ 0.185 µM)
MIC (Enterococcus I): 0.007 to 0.195 µg/mL (≈ 0.0132 to 0.368 µM)
MIC50 (Enterococcus I): 0.025 µg/mL (≈ 0.0472 µM)
MIC90 (Enterococcus I): 0.049 µg/mL (≈ 0.0925 µM)
MIC (Escherichia coli): 0.007 to 0.195 µg/mL (≈ 0.0132 to 0.368 µM)
MIC50 (Escherichia coli): 0.013 µg/mL (≈ 0.0245 µM)
MIC90 (Escherichia coli): 0.025 µg/mL (≈ 0.0472 µM)
MIC (Morganella morganil): 0.004 to 0.025 µg/mL (≈ 0.00755 to 0.0472 µM)
MIC50 (Morganella morganil): 0.013 µg/mL (≈ 0.0245 µM)
MIC90 (Morganella morganil): 0.025 µg/mL (≈ 0.0472 µM)
MIC (Proteus mirabilis): 0.013 to 0.098 µg/mL (≈ 0.0245 to 0.185 µM)
MIC50 (Proteus mirabilis): 0.013 µg/mL (≈ 0.0245 µM)
MIC90 (Proteus mirabilis): 0.098 µg/mL (≈ 0.185 µM)
MIC (Proteus vulgaris): 0.025 to 0.195 µg/mL (≈ 0.0472 to 0.368 µM)
MIC50 (Proteus vulgaris): 0.098 µg/mL (≈ 0.185 µM)
MIC90 (Proteus vulgaris): 0.195 µg/mL (≈ 0.368 µM)
MIC (Providencia rettgeri): 0.007 to 0.195 µg/mL (≈ 0.0132 to 0.368 µM)
MIC50 (Providencia rettgeri): 0.025 µg/mL (≈ 0.0472 µM)
MIC90 (Providencia rettgeri): 0.098 µg/mL (≈ 0.185 µM)
MIC (Pseudomonas II): 0.391 to 12.5 µg/mL (≈ 0.738 to 23.6 µM)
MIC50 (Pseudomonas II): 1.56 µg/mL (≈ 2.95 µM)
MIC90 (Pseudomonas II): 6.25 µg/mL (≈ 11.8 µM)
MIC (Pseudomonas I): 0.195 to 12.5 µg/mL (≈ 0.368 to 23.6 µM)
MIC50 (Pseudomonas I): 1.56 µg/mL (≈ 2.95 µM)
MIC90 (Pseudomonas I): 6.25 µg/mL (≈ 11.8 µM)
MIC (Pseudomonas aeruginosa): 1.56 to 25 µg/mL (≈ 2.95 to 47.2 µM)
MIC50 (Pseudomonas aeruginosa): 6.25 µg/mL (≈ 11.8 µM)
MIC90 (Pseudomonas aeruginosa): 12.5 µg/mL (≈ 23.6 µM)
MIC (Serratia spp): 0.013 to 0.098 µg/mL (≈ 0.0245 to 0.185 µM)
MIC50 (Serratia spp): 0.025 µg/mL (≈ 0.0472 µM)
MIC90 (Serratia spp): 0.049 µg/mL (≈ 0.0925 µM)
MIC (Streptococcus II): 0.002 to 0.013 µg/mL (≈ 0.00378 to 0.0245 µM)
MIC50 (Streptococcus II): 0.004 µg/mL (≈ 0.00755 µM)
MIC90 (Streptococcus II): 0.007 µg/mL (≈ 0.0132 µM)
MIC Range (Streptococcus I): 0.004 to 12.5 µg/mL
MIC50 (Streptococcus I; 18 h): 0.025 µg/mL (≈ 0.0472 µM)
MIC90 (Streptococcus I; 18 h): 6.25 µg/mL (≈ 11.8 µM)
ED50 [6]: 0.27 mg/kg
LD50 at 168 h (Acute toxcity test; sc, Subcutaneous administration): > 6000 mg/kg
LD50 at 168 h (Acute toxcity test; Intravenous administration): > 4000 mg/kg
antibacterial activity (in words) [7]: superior activity
